Measurements taken from PubChem BioAssay AID2060612 (Molecular Pharmacology Branch, DTP, NCI, 2025).
Each block holds one compound with its values, some of them ahead of it.

System: 565232-114-T-J1-PDC complex spheroid viability
Assay: Anticancer human tumor 565232-114-T-J1-PDC patient-derived bladder carcinoma cell line growth inhibition [CLK]
Conditions: for IC50: curve of first compound; for viability, T/C: stronger effect = lower value
Outline: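 Multi-cell-type spheroids combined patient-derived tumor cells with HUVEC endothelial cells and human mesenchymal stem cells. Paired agents were dosed in half-log steps down from about clinical Cmax, or from 10 microM where Cmax was unknown.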

[1] = second compound 0.0316 µM, first compound 0.0316 µM
[2] = second compound 0.0316 µM, first compound 0.1 µM
[3] = second compound 0.0316 µM, first compound 0.316 µM
[4] = second compound 0.0316 µM, first compound 1 µM
[5] = second compound 0.0316 µM, first compound 3.16 µM
[6] = second compound 0.0316 µM, first compound 10 µM
[7] = second compound 0.1 µM, first compound 0.0316 µM
[8] = second compound 0.1 µM, first compound 0.1 µM
[9] = second compound 0.1 µM, first compound 0.316 µM
[10] = second compound 0.1 µM, first compound 1 µM
[11] = second compound 0.1 µM, first compound 3.16 µM
[12] = second compound 0.1 µM, first compound 10 µM
[13] = second compound 0.316 µM, first compound 0.0316 µM
[14] = second compound 0.316 µM, first compound 0.1 µM
[15] = second compound 0.316 µM, first compound 0.316 µM
[16] = second compound 0.316 µM, first compound 1 µM
[17] = second compound 0.316 µM, first compound 3.16 µM
[18] = second compound 0.316 µM, first compound 10 µM
[19] = second compound 1 µM, first compound 0.0316 µM
[20] = second compound 1 µM, first compound 0.1 µM
[21] = second compound 1 µM, first compound 0.316 µM
[22] = second compound 1 µM, first compound 1 µM
[23] = second compound 1 µM, first compound 3.16 µM
[24] = second compound 1 µM, first compound 10 µM
[25] = second compound 3.16 µM, first compound 0.0316 µM
[26] = second compound 3.16 µM, first compound 0.1 µM
[27] = second compound 3.16 µM, first compound 0.316 µM
[28] = second compound 3.16 µM, first compound 1 µM
[29] = second compound 3.16 µM, first compound 3.16 µM
[30] = second compound 3.16 µM, first compound 10 µM
[31] = second compound 10 µM, first compound 0.0316 µM
[32] = second compound 10 µM, first compound 0.1 µM
[33] = second compound 10 µM, first compound 0.316 µM
[34] = second compound 10 µM, first compound 1 µM
[35] = second compound 10 µM, first compound 3.16 µM
[36] = second compound 10 µM, first compound 10 µM
[37] = second compound 0.0316 µM, first compound 0.00316 µM
[38] = second compound 0.0316 µM, first compound 0.01 µM
[39] = second compound 0.1 µM, first compound 0.00316 µM
[40] = second compound 0.1 µM, first compound 0.01 µM
[41] = second compound 0.316 µM, first compound 0.00316 µM
[42] = second compound 0.316 µM, first compound 0.01 µM
[43] = second compound 1 µM, first compound 0.00316 µM
[44] = second compound 1 µM, first compound 0.01 µM
[45] = second compound 3.16 µM, first compound 0.00316 µM
[46] = second compound 3.16 µM, first compound 0.01 µM
[47] = second compound 10 µM, first compound 0.00316 µM
[48] = second compound 10 µM, first compound 0.01 µM
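Note: spheroids exposed to compounds for 7 days before readout.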
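Throughout, for viability, T/C: 100% = DMSO vehicle wells with luminescence normalized to vehicle control.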

Structure (SMILES): CC(CO)NC(=O)c1cc(-c2ccc(Cl)cc2)nn(-c2cnn(C)c2)c1=O (stereo not given) + CNC(=O)c1ccc(Nc2nc(OC3CCCC3)c3c(-c4ccc5nc(C)oc5c4)c[nH]c3n2)c(OC)c1
IC50 (second compound 0.0316 µM): > 10000 nM
IC50 (second compound 0.1 µM): 131 nM
IC50 (second compound 0.316 µM): < 31.6 nM
IC50 (second compound 1 µM): < 31.6 nM
IC50 (second compound 3.16 µM): < 31.6 nM
IC50 (second compound 10 µM): < 31.6 nM
viability, T/C [1]: 85.2%
viability, T/C [2]: 74.3%
viability, T/C [3]: 79.8%
viability, T/C [4]: 83%
viability, T/C [5]: 97.6%
viability, T/C [6]: 117%
viability, T/C [7]: 50.5%
viability, T/C [8]: 51.3%
viability, T/C [9]: 48.8%
viability, T/C [10]: 47.1%
viability, T/C [11]: 51%
viability, T/C [12]: 45.4%
viability, T/C [13]: 35%
viability, T/C [14]: 26.5%
viability, T/C [15]: 32.5%
viability, T/C [16]: 36.1%
viability, T/C [17]: 37.7%
viability, T/C [18]: 34%
viability, T/C [19]: 22.1%
viability, T/C [20]: 23.6%
viability, T/C [21]: 23.7%
viability, T/C [22]: 21.1%
viability, T/C [23]: 23.5%
viability, T/C [24]: 22.5%
viability, T/C [25]: 17.5%
viability, T/C [26]: 18.2%
viability, T/C [27]: 19.7%
viability, T/C [28]: 18.2%
viability, T/C [29]: 22%
viability, T/C [30]: 19%
viability, T/C [31]: 19.9%
viability, T/C [32]: 18.1%
viability, T/C [33]: 18.4%
viability, T/C [34]: 16.2%
viability, T/C [35]: 18.4%
viability, T/C [36]: 17.7%

Structure (SMILES): CC(Nc1ccc2c(c1)OCCn1cc(N3C(=O)OCC3C(F)F)nc1-2)C(N)=O (stereo not given) + CNC(=O)c1ccc(Nc2nc(OC3CCCC3)c3c(-c4ccc5nc(C)oc5c4)c[nH]c3n2)c(OC)c1
IC50 (second compound 0.0316 µM): > 10000 nM
IC50 (second compound 0.1 µM): < 31.6 nM
IC50 (second compound 0.316 µM): < 31.6 nM
IC50 (second compound 1 µM): < 31.6 nM
IC50 (second compound 3.16 µM): < 31.6 nM
IC50 (second compound 10 µM): < 31.6 nM
viability, T/C [1]: 87.5%
viability, T/C [2]: 93.6%
viability, T/C [3]: 88.1%
viability, T/C [4]: 100%
viability, T/C [5]: 101%
viability, T/C [6]: 101%
viability, T/C [7]: 35.1%
viability, T/C [8]: 34.1%
viability, T/C [9]: 37.4%
viability, T/C [10]: 39.9%
viability, T/C [11]: 33.6%
viability, T/C [12]: 29.2%
viability, T/C [13]: 21.4%
viability, T/C [14]: 20.2%
viability, T/C [15]: 23.8%
viability, T/C [16]: 23.7%
viability, T/C [17]: 19.9%
viability, T/C [18]: 18%
viability, T/C [19]: 15.5%
viability, T/C [20]: 15.3%
viability, T/C [21]: 12.6%
viability, T/C [22]: 14.9%
viability, T/C [23]: 13.1%
viability, T/C [24]: 9.75%
viability, T/C [25]: 9.27%
viability, T/C [26]: 10.4%
viability, T/C [27]: 9.44%
viability, T/C [28]: 10.1%
viability, T/C [29]: 6.97%
viability, T/C [30]: 10.2%
viability, T/C [31]: 12.9%
viability, T/C [32]: 10.9%
viability, T/C [33]: 13.1%
viability, T/C [34]: 9.16%
viability, T/C [35]: 7.38%
viability, T/C [36]: 5.93%

Second part, led by results:

IC50 (second compound 0.0316 µM): > 10000 nM
IC50 (second compound 0.1 µM): < 31.6 nM
IC50 (second compound 0.316 µM): < 31.6 nM
IC50 (second compound 1 µM): < 31.6 nM
IC50 (second compound 3.16 µM): < 31.6 nM
IC50 (second compound 10 µM): < 31.6 nM
Structure (SMILES): C#Cc1c(F)ccc2cc(O)cc(-c3ncc4c(N5CC6CCC(C5)N6)nc(OCC56CCCN5CC(F)C6)nc4c3F)c12 (stereo not given) + CNC(=O)c1ccc(Nc2nc(OC3CCCC3)c3c(-c4ccc5nc(C)oc5c4)c[nH]c3n2)c(OC)c1
viability, T/C [1]: 78.9%
viability, T/C [2]: 67.7%
viability, T/C [3]: 95.5%
viability, T/C [4]: 75.6%
viability, T/C [5]: 119%
viability, T/C [6]: 89.6%
viability, T/C [7]: 49.6%
viability, T/C [8]: 46.9%
viability, T/C [9]: 45.9%
viability, T/C [10]: 53.2%
viability, T/C [11]: 51.5%
viability, T/C [12]: 44.2%
viability, T/C [13]: 33.3%
viability, T/C [14]: 31.7%
viability, T/C [15]: 28.9%
viability, T/C [16]: 28.1%
viability, T/C [17]: 31.5%
viability, T/C [18]: 23%
viability, T/C [19]: 25.8%
viability, T/C [20]: 25.6%
viability, T/C [21]: 22.3%
viability, T/C [22]: 17.4%
viability, T/C [23]: 21.5%
viability, T/C [24]: 17.3%
viability, T/C [25]: 18.6%
viability, T/C [26]: 16.2%
viability, T/C [27]: 18.8%
viability, T/C [28]: 16.4%
viability, T/C [29]: 16.4%
viability, T/C [30]: 11.6%
viability, T/C [31]: 18.6%
viability, T/C [32]: 17.3%
viability, T/C [33]: 12.3%
viability, T/C [34]: 14.8%
viability, T/C [35]: 19.7%
viability, T/C [36]: 9.9%

IC50 (second compound 0.0316 µM): > 1000 nM
IC50 (second compound 0.1 µM): > 1000 nM
IC50 (second compound 0.316 µM): < 3.16 nM
IC50 (second compound 1 µM): < 3.16 nM
IC50 (second compound 3.16 µM): < 3.16 nM
IC50 (second compound 10 µM): < 3.16 nM
Structure (SMILES): CCN1CCN(Cc2ccc(Nc3ncc(F)c(-c4cc(F)c5nc(C)n(C(C)C)c5c4)n3)nc2)CC1 + CNC(=O)c1ccc(Nc2nc(OC3CCCC3)c3c(-c4ccc5nc(C)oc5c4)c[nH]c3n2)c(OC)c1
viability, T/C [37]: 84.4%
viability, T/C [38]: 81.1%
viability, T/C [1]: 84.7%
viability, T/C [2]: 82.6%
viability, T/C [3]: 119%
viability, T/C [4]: 129%
viability, T/C [39]: 53.9%
viability, T/C [40]: 56.5%
viability, T/C [7]: 48.7%
viability, T/C [8]: 64%
viability, T/C [9]: 58.3%
viability, T/C [10]: 66.7%
viability, T/C [41]: 32.8%
viability, T/C [42]: 40.6%
viability, T/C [13]: 32.6%
viability, T/C [14]: 38.2%
viability, T/C [15]: 42.3%
viability, T/C [16]: 46.4%
viability, T/C [43]: 23.9%
viability, T/C [44]: 26.5%
viability, T/C [19]: 24.7%
viability, T/C [20]: 34.2%
viability, T/C [21]: 35.8%
viability, T/C [22]: 39.2%
viability, T/C [45]: 18.1%
viability, T/C [46]: 19%
viability, T/C [25]: 25%
viability, T/C [26]: 22.9%
viability, T/C [27]: 27.2%
viability, T/C [28]: 37%
viability, T/C [47]: 19.9%
viability, T/C [48]: 18.4%
viability, T/C [31]: 21.7%
viability, T/C [32]: 22.5%
viability, T/C [33]: 31.2%
viability, T/C [34]: 27.1%

IC50 (second compound 0.0316 µM): > 1000 nM
IC50 (second compound 0.1 µM): < 3.16 nM
IC50 (second compound 0.316 µM): < 3.16 nM
IC50 (second compound 1 µM): < 3.16 nM
IC50 (second compound 3.16 µM): < 3.16 nM
IC50 (second compound 10 µM): < 3.16 nM
Structure (SMILES): COc1c(OCCCN2CCOCC2)ccc2c3n(c(=NC(=O)c4cnc(N)nc4)nc12)CCN3 + CNC(=O)c1ccc(Nc2nc(OC3CCCC3)c3c(-c4ccc5nc(C)oc5c4)c[nH]c3n2)c(OC)c1
viability, T/C [37]: 106%
viability, T/C [38]: 81.5%
viability, T/C [1]: 84.9%
viability, T/C [2]: 94.5%
viability, T/C [3]: 118%
viability, T/C [4]: 68.7%
viability, T/C [39]: 39.5%
viability, T/C [40]: 38.5%
viability, T/C [7]: 29.8%
viability, T/C [8]: 31.7%
viability, T/C [9]: 22.6%
viability, T/C [10]: 20.8%
viability, T/C [41]: 26.9%
viability, T/C [42]: 24.1%
viability, T/C [13]: 22.4%
viability, T/C [14]: 18.9%
viability, T/C [15]: 15.8%
viability, T/C [16]: 9.27%
viability, T/C [43]: 15.4%
viability, T/C [44]: 16.9%
viability, T/C [19]: 14.5%
viability, T/C [20]: 8.97%
viability, T/C [21]: 5.69%
viability, T/C [22]: 3.61%
viability, T/C [45]: 15.6%
viability, T/C [46]: 9.18%
viability, T/C [25]: 8.92%
viability, T/C [26]: 4.99%
viability, T/C [27]: 5.15%
viability, T/C [28]: 1.71%
viability, T/C [47]: 12.3%
viability, T/C [48]: 10.3%
viability, T/C [31]: 5.74%
viability, T/C [32]: 5.45%
viability, T/C [33]: 3.3%
viability, T/C [34]: 1.73%
